In the supplement of paper PMC10307832:

Columns and labels:
Assay in all cases: relative viability (nuclei count vs DMSO), 5 days (fraction); higher = more cells survive
Imatinib + Trametinib = compound: Cc1ccc(NC(=O)c2ccc(CN3CCN(C)CC3)cc2)cc1Nc1nccc(-c2cccnc2)n1 [Imatinib] + CC(=O)Nc1cccc(-n2c(=O)n(C3CC3)c(=O)c3c(Nc4ccc(I)cc4F)n(C)c(=O)c(C)c32)c1 [Trametinib] (partner 0.02 µM)
Procedure, shortened: (§1)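 Relative viability was taken as the ratio of nuclei in treated wells to nuclei in vehicle wells. Lung cancer cell lines in 1536-well plates received compounds by pin tool one day after seeding, either one drug alone or a fixed anchor-drug dose plus five library-drug doses (not always all listed) in √10 steps. Nuclei were counted on 4× images after 5 days of treatment, and values are medians of duplicate plates.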

Imatinib + Tozasertib = compound: Cc1ccc(NC(=O)c2ccc(CN3CCN(C)CC3)cc2)cc1Nc1nccc(-c2cccnc2)n1 [Imatinib] + Cc1cc(Nc2cc(N3CCN(C)CC3)nc(Sc3ccc(NC(=O)C4CC4)cc3)n2)n[nH]1 [Tozasertib] (partner 0.1 µM)
Procedure, shortened: as §1

Imatinib + Phenformin = compound: Cc1ccc(NC(=O)c2ccc(CN3CCN(C)CC3)cc2)cc1Nc1nccc(-c2cccnc2)n1 [Imatinib] + N=C(N)NC(=N)NCCc1ccccc1 [Phenformin] (partner 250 µM)
Procedure, shortened: as §1

Imatinib + AZD7762 = compound: Cc1ccc(NC(=O)c2ccc(CN3CCN(C)CC3)cc2)cc1Nc1nccc(-c2cccnc2)n1 [Imatinib] + NC(=O)Nc1cc(-c2cccc(F)c2)sc1C(=O)N[C@H]1CCCNC1 [AZD7762] (partner 0.2 µM)
Procedure, shortened: as §1

Row | Cell Line | relative viability (Imatinib + Trametinib; first compound 0.02 µM) | relative viability (Imatinib + Trametinib; first compound 0.2 µM) | relative viability (Imatinib + Trametinib; first compound 0.6325 µM) | relative viability (Imatinib + Trametinib; first compound 2 µM) | relative viability (Imatinib + Tozasertib; first compound 0.02 µM) | relative viability (Imatinib + Tozasertib; first compound 0.06325 µM) | relative viability (Imatinib + Tozasertib; first compound 0.2 µM) | relative viability (Imatinib + Tozasertib; first compound 0.6325 µM) | relative viability (Imatinib + Tozasertib; first compound 2 µM) | relative viability (Imatinib + Phenformin; first compound 0.02 µM) | relative viability (Imatinib + Phenformin; first compound 0.06325 µM) | relative viability (Imatinib + Phenformin; first compound 0.2 µM) | relative viability (Imatinib + Phenformin; first compound 0.6325 µM) | relative viability (Imatinib + Phenformin; first compound 2 µM) | relative viability (Imatinib + AZD7762; first compound 0.02 µM) | relative viability (Imatinib + AZD7762; first compound 0.2 µM) | relative viability (Imatinib + AZD7762; first compound 0.6325 µM) | relative viability (Imatinib + AZD7762; first compound 2 µM) | relative viability (Imatinib + Trametinib; first compound 0.06325 µM) | relative viability (Imatinib + AZD7762; first compound 0.06325 µM)
1 | LXF-289 | 0.662 | 0.755 | 0.636 | 0.679 | 0.22 | 0.162 | 0.21 | 0.232 | 0.187 | 0.531 | 0.491 | 0.552 | 0.51 | 0.502 | 1.13 | 1.25 | 1.04 | 1.09 |  | 
2 | NCI-H2085 | 0.49 | 0.535 | 0.58 | 0.513 | 0.823 | 0.795 | 0.877 | 0.553 | 0.489 | 0.867 | 0.694 | 0.748 | 0.752 | 0.704 | 1.03 |  | 1.14 | 0.879 | 0.515 | 0.87
3 | NCI-H441 | 0.537 | 0.572 | 0.517 | 0.37 | 0.58 | 0.644 | 0.667 | 0.612 | 0.412 | 0.755 | 0.747 | 1.02 | 0.958 | 0.879 | 1.34 | 1.17 | 1.1 | 1.08 | 0.459 | 1.34
4 | 201T | 0.694 | 0.738 | 0.681 | 0.7 | 0.98 |  | 1.06 |  | 0.859 | 0.433 |  | 0.469 | 0.435 | 0.437 | 0.72 | 0.589 | 0.541 | 0.517 | 0.697 | 0.399
5 | RERF-LC-KJ | 0.806 | 0.936 | 0.909 | 0.771 | 0.527 | 0.498 | 0.476 | 0.389 | 0.305 | 0.49 | 0.472 | 0.432 | 0.407 | 0.428 | 1.01 | 1.19 | 0.88 | 0.967 | 0.97 | 0.523
6 | HCC-44 | 1.1 | 1.24 | 0.94 | 1.11 | 1.03 | 0.558 | 1.01 | 0.109 | 0.735 | 0.252 | 0.22 | 0.222 | 0.196 | 0.192 |  | 1.13 | 1.01 | 0.968 |  | 
7 | LK-2 | 0.783 | 0.919 |  | 0.87 | 0.173 | 0.181 | 0.159 | 0.139 | 0.176 | 0.447 | 0.413 | 0.378 | 0.439 | 0.46 | 0.343 | 0.335 |  | 0.33 | 0.61 | 0.442
8 | NCI-H1734 | 0.739 | 0.689 | 0.825 | 0.71 | 0.243 | 0.268 | 0.278 | 0.259 | 0.264 | 0.382 | 0.389 | 0.431 | 0.368 | 0.357 | 0.673 | 0.516 | 0.48 | 0.484 |  | 
9 | NCI-H2126 | 0.525 | 0.565 | 0.57 | 0.574 | 0.921 |  | 0.872 | 0.352 | 0.739 | 0.514 |  | 0.57 |  | 0.501 |  | 1.03 | 0.894 | 0.981 | 0.43 | 0.668
10 | NCI-H1944 | 0.408 | 0.449 | 0.436 | 0.402 | 0.259 | 0.401 | 0.253 | 0.236 | 0.262 | 0.185 | 0.2 | 0.188 | 0.199 | 0.162 | 0.628 | 0.452 | 0.37 | 0.423 | 0.376 | 0.556
11 | ChaGo-K-1 | 0.927 | 0.833 | 0.81 | 0.871 | 0.223 | 0.189 | 0.208 | 0.185 | 0.21 | 0.425 | 0.485 | 0.505 | 0.426 | 0.432 | 0.979 | 0.941 | 0.791 | 0.943 |  | 
12 | LCLC-103H | 0.752 | 0.742 | 0.655 | 0.658 | 0.463 | 0.473 | 0.514 | 0.481 | 0.398 | 0.342 | 0.325 | 0.347 | 0.316 | 0.255 | 0.809 | 0.876 | 0.695 | 0.781 | 0.673 | 0.779
13 | HOP-62 | 0.376 | 0.359 | 0.357 | 0.401 | 0.431 |  | 0.356 | 0.353 | 0.326 | 0.77 |  | 0.858 | 0.613 | 0.66 | 0.532 | 0.707 | 0.504 | 0.687 |  | 
14 | HCC-15 | 0.399 | 0.411 | 0.406 | 0.359 | 0.472 |  | 0.389 | 0.402 | 0.284 | 0.502 |  | 0.518 | 0.451 | 0.433 | 0.449 | 1.32 | 1.42 | 1.3 |  | 
15 | NCI-H1793 | 0.472 | 0.582 | 0.404 | 0.368 | 0.309 |  | 0.328 | 0.223 | 0.28 | 0.388 |  | 0.375 | 0.284 | 0.257 | 0.463 | 0.279 | 0.286 | 0.197 |  | 
16 | NCI-H1755 | 0.793 | 0.839 | 0.782 | 0.725 | 0.612 | 0.585 | 0.592 | 0.609 | 0.516 | 0.643 | 0.674 | 0.596 | 0.568 | 0.536 | 0.451 | 0.413 | 0.421 | 0.434 | 0.811 | 0.458
17 | NCI-H322M | 0.45 | 0.546 | 0.535 | 0.507 | 0.483 | 0.507 | 0.491 | 0.432 | 0.471 | 0.909 | 0.839 | 0.819 | 0.679 | 0.795 | 0.565 | 0.529 | 0.608 | 0.586 | 0.48 | 0.673
18 | NCI-H650 | 0.969 | 0.937 | 1.04 | 0.843 | 0.832 | 0.682 | 0.851 | 0.697 | 0.764 | 0.505 | 0.435 | 0.516 | 0.494 | 0.425 | 1.11 |  | 1.03 | 0.979 | 0.833 | 0.882
